Measured values published in patent US8163803B2 (Fundação Oswaldo Cruz—FIOCRUZ, priority 2004, dated 2012).

Tests used:
[1] = system: isolated ileum of an experimental animal; test: Contraction of isolated ileum induced by histamine; conditions: histamine (5 μM), average ±SEM, at least 3 animals; read-out: Stimulation with histamine IC50
Protocol: Female and male experimental animals were used, weighing between 300 and 400 g, they came from Oswaldo Cruz Foundation's Center of Laboratory Animal Raising. The procedures involving the animals were examined and approved by Oswaldo Cruz Foundation's Committee of Animal Ethics (CEUA-FIOCRUZ, Licenca no. 00085-02). The animals were sensitized through a subcutanous injection with a mixture of 50 μg ovoalbumin and 5 mg Al(OH)3. From fourteen to thirty days after the sensitization, the experimental, animal was sacrificed in a chamber of carbonic gas to have its abdomen open and the location of the ileocecal valve. At this point, the intestine was sectioned and a segment of the small intestine, about 20 cm (equivalent to the ileum) was carefully removed and internally washed with a warmed solution (37° C.) of Tyrode (Composition in mM) (NaCl 137; KCl 2.7; NaH2PO4 0.42; NaHCO3 11.9; MgCl2 0.5; CaCl2 1.8; glucose 5.6) to remove the fecal content. […].
About 3-cm ileum fragments were vertically mounted in 10 ml glass cuvettes, immersed in Tyrode's solution at 37° C., aerated with carbogen (O2, 95% and CO2, 5%) and supplemented with atropine according to the standard procedure. The tissue had one of its ends tied to a rod while the other end was coupled with a transductor after the transference from the rod to the cuvette. The contractions were isotonically registered (basal tension of 1 g) with the support of a transductor of displacement-force connected to a computerized system to capture data. After a 30 minute period of balance, each segment was repeatedly stimulated by histamine (1 μM) until response stabilization. To induce anaphylatic contraction, ileum segments from sensitized experimental animals were stimulated by ovoalbumin (10 μg/ml). […]. The results were presented as a percentage of inhibition calculated in relation to the contractive effect obtained from stimulated and non-treated preparations.
Concentration-response data were adjusted through non-linear regression curves with the assistence of a graphics software (GraphPad Prism, USA). The concentration of an antagonist needed to inhibit the contractive response to inhibit the contractive response after stimulation by histamine or antigen at 50% (IC50) was used to compare the anti-spasmodic potency. The values expressed as an average ± standard error of the mean and statistically analysed through the test of analysis variance (ANOVA), followed by the Newman-Keuls-Student test.

[2] = system: dorsal subcutaneous tissue of rats; test: Anaphylactic release of histamine by fragments of dorsal subcutaneous tissue; set-up: species or system Wistar rats; conditions: ovoalbumin (300 μg/ml); for IC50: 60 min pre-treatment, read-out: IC50, inhibition of histamine release caused by anaphylatic stimulus
Protocol: Female and male Wistar rats were used, weighing between 180 and 200 g, they came from Oswaldo Cruz Foundation's Center of Laboratory Animal Raising. The procedures involving the animals were examined and approved by Oswaldo Cruz Foundation's Committee of Animal Ethics (CEUA-FIOCRUZ, Port. 00085-02). The rats were sensitized with a subcutaneous injection containing a mixture of 50 μg ovalbumina plus 5 mg Al(OH)3. Fourteen days after the sensitization the animals were sacrificed in a chamber of CO2, to have their dorsal hypodermis removed which was fragmented into smaller segments of about 3 mm in a Petri dish containing PBS. The fragments were individually transferred to a dish with 48 pools containing 500 μl of Hanks with Ca^++ and Mg^++.
Five experimental groups were studied in quadruplicates:
I. Saline group, negative control, pools where the tissue was neither treated nor stimulated;
II. Ovoalbumin group, positive control, pools where the tissue was not treated but it was stimulated by ovoalbumin (300 μg/ml);
III. JM24-1 group, pools where the tissue was previously treated with JM24-1 before the stimulation with ovoalbumin (300 μg/ml);
IV. JM25-1 group, pools where the tissue was previously treated with JM25-1 before the stimulation with ovoalbumin (300 μg/ml);
V. JMF2-1 group, pools where the tissue was previously treated with JMF2-1 before the stimulation with ovoalbumin (300 μg/ml).
Treated and non-treated pools were kept at 37° C. in a metabolic incubator (atmosphere containing 95% O2 and 5% CO2) for 60 minutes before the antigenic challenge. After the addition of ovoalbumin (300 μg/ml) all the pools were incubated again in a metabolic oven for more than 60 minutes. After removal of tissue for drying and weighing, the culture medium was collected and acidified with perchloric acid 0.4 N being, after centrifugation 150×g for 10 min. stocked at −20° C. until the moment of fluorimetric quantifying of histamine, according to the previous work. The values were shown like nanograms of released histamine by mg of tissue (dry weight).

Swiss 44 mice = test: Convulsivant activity after intraperitoneal injection; assay type: in vivo
Protocol: Female and male Swiss 44 mice were used, weighing between 25 and 30 g, they came from Oswaldo Cruz Foundation's Center of Laboratory Animal Raising. The procedures involving the animals were examined and approved by Oswaldo Cruz Foundation's Committee of Animal Ethics (CEUA-FIOCRUZ, Act 00085-02). […] For each molecule, the necessary dose to induce a convulsive clinical Figure in 50% of the animals (DE50) was determined by linear regressive curves interpoled (GraphPad Prim, version 3.03).

[3] = system: experimental animal trachea; test: Relaxation of trachea pre-contracted by anaphylactic stimulation (ovoalbumin); conditions: pre-contracted with ovoalbumin (20 μg/ml), average±SEM, at least 3 animals; read-out: IC50, concentration necessary to relax in 50% the anaphylatic spasm of trachea
Protocol: Female and male experimental animals were used, weighing between 300 and 400 g, they came from Oswaldo Cruz Foundation's Center of Laboratory Animal Raising. The procedures involving the animals were examined and approved by Oswaldo Cruz Foundation's Committee of Animal Ethics (CEUA-FIOCRUZ, License number 00085-02). The animals were sensitized through a subcutaneous injection with a mixture of 50 μg ovoalbumin and 5 mg Al(OH)3. Fourteen to thirty days after the sensitization, the experimental animal was sacrificed in a chamber of carbonic gas to have its trachea removed. The trachea was transferred to a Petri dish containing Krebs solution (composition in mM) (NaCl-119; […] NaHCO3-25; […] The total segment was divided into fragments of about 3 to 4 rings that were sectioned at the extreme ending, the muscular part of the trachea. Each fragment had one of its ends tied to a rod while the other end was connected to an isometric transductor (U Basile, Italy) after the transference from the rod to a 10 ml glass cuvette. […] The contractions were registered with the […] of a computerized system of data capture (Letica, Spain). […] The results were shown as a percentage of relaxation in relation to the plateau of the anaphylatic pre-contraction. Concentration-response data were adjusted through non-linear regression curves with the […] of a graphics software (GraphPad Prism, USA). […] The values were expressed as an average± standard error of the mean and statistically analysed through the test of analysis variance (ANOVA), followed by the Newman-Keuls-Student test.

[4] = intraperitoneal, 15 minutes after injection, 10 mice per dose

CCN(CC)CC(=O)Nc1cccc(C)c1C [JM23-1, 2-dyethylamine-2′,3′-acetoxylidide]
IC50 [1]: 380 ± 60 µM
inhibition of anaphylactic histamine release, result in words [2]: inactive
DE50, dose to induce convulsion in 50% of the animals (Swiss 44 mice; mouse, in vivo, ip): 154 mg/kg
IC50 [3]: 220 ± 60 µM

CCN(CC)CC(=O)Nc1ccc(C)cc1C [JM24-1, 2-dyethylamine-2′,4′-acetoxylidide]
IC50 [1]: 310 ± 60 µM
inhibition of anaphylactic histamine release, result in words [2]: concentrations comparable to that of lidocaine
IC50 [2]: 6.46 µM
convulsivant activity compared with lidocaine (Swiss 44 mice; 40-500 mg/Kg intraperitoneal): noticeably inferior
DE50, dose to induce convulsion in 50% of the animals (Swiss 44 mice; [4]): 230 mg/kg
IC50 [3]: 30 µM

CCN(CC)CC(=O)Nc1c(C)cccc1C [Lidocaine, 1-(2-(dyethylamine)N-dymethylfenyl)-acetamide, reference compound]
IC50 [1]: 1410 ± 120 µM
IC50 [2]: 4.5 µM
percentage of injected animals led to convulsion (Swiss 44 mice; 80 mg/Kg intraperitoneal): 100%
DE50, dose to induce convulsion in 50% of the animals (Swiss 44 mice; [4]): 62 mg/kg
IC50 [3]: 1350 ± 20 µM
